Where a SMILES comes first, the peptide text is derived from it.
Biological target: HLA-A*0201 (Homo sapiens, UniProt P04439, D140Y/D185E/D98H/E176V/E277Q/G131W/G231S/I119V/I121R/I166T/I218V/L300P/L318F/N151K/N90K/P208A/P217A/Q86G/Q94H/R138H/R169H/T345S)
Test: In vitro class I HLA binding assay (fluorescence polarization competition)
Conditions: allele A*0201; fluorescence polarization competition
Method: (§1) A cell-free class I HLA binding assay that allows for in vitro quantification of peptide-HLA binding affinity in a competition format was used. In this assay, a fluorescently labeled, high binding, control peptide is loaded onto 384-well ½-area plates along with unlabeled experimental peptides. To remove endogenous peptides and render the HLA A and B molecules receptive to binding, HLA is heated at 53°C for 15 minutes and immediately added to the assay. The mixture is then allowed to stand for three days. Once the mixture has reached steady equilibrium (at 72 hours), displacement of the high binding control peptide is measured through fluorescence polarization. Binding of experimental peptides is expressed as the percent inhibition of the labeled control peptide (experimental fluorescence / control fluorescence, multiplied by 100). The percent inhibition values for each experimental peptide (across a range of molar concentrations) are used to calculate the concentration which inhibits 50% of the labeled control peptide’s specific binding. This value is referred to as the peptide’s IC50.

Compound | IC50 (nM), in vitro HLA binding affinity
DMSNEYSLFI [RH5_461] | Non-Binder

Same assay, conditions: allele A*0201; fluorescence polarization competition; read-out: IC50 (nM), in vitro HLA binding affinity

Compound | IC50 [nM]
CC[C@H](C)[C@H](NC(=O)[C@H](CC(N)=O)NC(=O)[C@H](CC(N)=O)NC(=O)[C@H](CC(C)C)NC(=O)[C@@H](N)Cc1c[nH]cn1)C(=O)N[C@@H](Cc1ccccc1)C(=O)N[C@@H](Cc1c[nH]cn1)C(=O)N[C@@H](Cc1c[nH]cn1)C(=O)N[C@@H](CC(C)C)C(=O)O [RH5_489] (H-HLNNIFHHL-OH) | 225
CC[C@H](C)[C@H](NC(=O)[C@H](CC(C)C)NC(=O)[C@H](Cc1c[nH]cn1)NC(=O)[C@H](Cc1c[nH]cn1)NC(=O)[C@H](Cc1ccccc1)NC(=O)[C@@H](NC(=O)[C@@H](N)CC(N)=O)[C@@H](C)CC)C(=O)N[C@@H](Cc1ccc(O)cc1)C(=O)N[C@H](C(=O)O)C(C)C [RH5_492] (H-NIFHHLIYV-OH) | 2290
CC(C)C[C@H](NC(=O)[C@H](CO)NC(=O)[C@H](Cc1ccccc1)NC(=O)[C@@H](NC(=O)[C@H](CC(C)C)NC(=O)[C@@H](N)CCCCN)[C@@H](C)O)C(=O)N[C@@H](CC(=O)O)C(=O)N[C@@H](Cc1c[nH]cn1)C(=O)N[C@@H](CCCNC(=N)N)C(=O)N[C@H](C(=O)O)C(C)C [RIPR_0035] (H-KLTFSLDHRV-OH) | 8880
CC[C@H](C)[C@H](NC(=O)[C@H](CO)NC(=O)[C@H](C)NC(=O)[C@H](CC(=O)O)NC(=O)[C@H](CC(=O)O)NC(=O)[C@H](CC(N)=O)NC(=O)[C@H](Cc1ccc(O)cc1)NC(=O)[C@H](CCC(N)=O)NC(=O)[C@@H](N)Cc1ccccc1)C(=O)O [RIPR_0991] (H-FQYNDDASI-OH) | 275
CC[C@H](C)[C@H](NC(=O)[C@H](CCCCN)NC(=O)[C@H](Cc1c[nH]c2ccccc12)NC(=O)[C@@H](NC(=O)[C@@H](NC(=O)[C@H](CCC(N)=O)NC(=O)[C@H](CC(N)=O)NC(=O)[C@H](Cc1ccc(O)cc1)NC(=O)[C@@H](NC(=O)[C@@H](N)Cc1ccc(O)cc1)[C@@H](C)CC)[C@@H](C)CC)[C@@H](C)CC)C(=O)O [RIPR_1011] (H-YIYNQIIWKI-OH) | 1950

Biological target: HLA-A*0101 (Homo sapiens, UniProt P04439, A114D/A174V/A182V/D101N/D185E/E176A/E190D/L180R/Q94H/R68K/S129P/T187R/V100A/V91M/W191G)
Test: biochemical
Type: binding
Conditions: allele A*0101; cell-free competition, fluorescence polarization at 72 hours; Non-binder = no dose-dependent inhibition; read-out: IC50
Method: as §1

Compound | IC50 [nM]
CC[C@H](C)[C@H](NC(=O)[C@H](CC(C)C)NC(=O)[C@H](CO)NC(=O)[C@H](CO)NC(=O)[C@@H](N)[C@@H](C)O)C(=O)N[C@@H](CCCCN)C(=O)N[C@@H](CCC(N)=O)C(=O)N[C@@H](CC(N)=O)C(=O)N[C@@H](CCCCN)C(=O)N[C@@H](Cc1ccc(O)cc1)C(=O)O [EBA175_0114] (H-TSSLIKQNKY-OH) | 37100
CC[C@H](C)[C@H](NC(=O)[C@H](CCCNC(=N)N)NC(=O)[C@H](CCC(=O)O)NC(=O)[C@@H](NC(=O)[C@@H](N)[C@@H](C)O)[C@@H](C)O)C(=O)N[C@@H](CO)C(=O)N[C@@H](CC(N)=O)C(=O)N[C@@H](CC(N)=O)C(=O)N[C@@H](CCC(=O)O)C(=O)N[C@@H](Cc1ccc(O)cc1)C(=O)O [EBA175_1084] (H-TTERISNNEY-OH) | 904
C[C@@H](O)[C@H](NC(=O)[C@@H](N)Cc1ccccc1)C(=O)N[C@@H](Cc1ccc(O)cc1)C(=O)N[C@@H](CC(=O)O)C(=O)N[C@@H](CO)C(=O)N[C@@H](CCC(=O)O)C(=O)N[C@@H](CCC(=O)O)C(=O)N[C@@H](Cc1ccc(O)cc1)C(=O)N[C@@H](Cc1ccc(O)cc1)C(=O)O [EBA175_1392] (H-FTYDSEEYY-OH) | 136
CC(C)C[C@H](NC(=O)[C@H](CCCCN)NC(=O)[C@H](CC(=O)O)NC(=O)[C@H](CC(C)C)NC(=O)[C@H](CC(N)=O)NC(=O)[C@H](CC(=O)O)NC(=O)[C@@H](NC(=O)[C@@H](N)C(C)C)[C@@H](C)O)C(=O)N[C@@H](CO)C(=O)N[C@@H](CC(N)=O)C(=O)O [EBA175_1465] (H-VTDNLDKLSN-OH) | 188000

Same assay, conditions: allele A*0101; fluorescence polarization competition; read-out: IC50 (nM), in vitro HLA binding affinity

Compound | IC50 [nM]
N=C(N)NCCC[C@H](NC(=O)[C@@H](N)Cc1c[nH]cn1)C(=O)N[C@@H](CCC(=O)O)C(=O)N[C@@H](Cc1c[nH]cn1)C(=O)N1CCC[C@H]1C(=O)N[C@@H](CCCCN)C(=O)N[C@@H](CCC(=O)O)C(=O)N[C@@H](Cc1ccc(O)cc1)C(=O)N[C@@H](CCC(=O)O)C(=O)N[C@@H](Cc1ccc(O)cc1)C(=O)O [AMA1_044] (H-HREHPKEYEY-OH) | 11100
CC[C@H](C)[C@H](NC(=O)[C@H](CCC(=O)O)NC(=O)[C@@H](NC(=O)[C@@H](N)CO)[C@@H](C)CC)C(=O)N[C@H](C(=O)N[C@@H](CCC(=O)O)C(=O)N[C@@H](CCCNC(=N)N)C(=O)N[C@@H](CO)C(=O)N[C@@H](CC(N)=O)C(=O)N[C@@H](Cc1ccc(O)cc1)C(=O)O)C(C)C [AMA1_096] (H-SIEIVERSNY-OH) | 12100
CC(C)C[C@H](N)C(=O)N[C@H](C(=O)N1CCC[C@H]1C(=O)N[C@H](C(=O)N[C@@H](C)C(=O)N[C@H](C(=O)NCC(=O)N[C@@H](CC(N)=O)C(=O)N[C@@H](CCC(N)=O)C(=O)N[C@@H](Cc1ccc(O)cc1)C(=O)O)[C@@H](C)O)C(C)C)[C@@H](C)O [AMA1_166] (H-LTPVATGNQY-OH) | 2560
CC[C@H](C)[C@H](N)C(=O)N1CCC[C@H]1C(=O)N[C@@H](CC(=O)O)C(=O)N[C@@H](CC(N)=O)C(=O)N[C@@H](CC(=O)O)C(=O)N[C@@H](CCCCN)C(=O)N[C@@H](CC(N)=O)C(=O)N[C@@H](CO)C(=O)N[C@@H](CC(N)=O)C(=O)N[C@@H](Cc1ccc(O)cc1)C(=O)O [AMA1_225] (H-IPDNDKNSNY-OH) | 14700
C[C@H](N)C(=O)N[C@@H](CO)C(=O)N[C@@H](CC(=O)O)C(=O)N[C@@H](CCC(N)=O)C(=O)N1CCC[C@H]1C(=O)N[C@@H](CCCCN)C(=O)N[C@@H](CCC(N)=O)C(=O)N[C@@H](Cc1ccc(O)cc1)C(=O)N[C@@H](CCC(=O)O)C(=O)N[C@@H](CCC(N)=O)C(=O)O [AMA1_346] (H-ASDQPKQYEQ-OH) | 126000
CC[C@H](C)[C@H](NC(=O)[C@H](Cc1c[nH]cn1)NC(=O)[C@@H](NC(=O)[C@H](CCC(=O)O)NC(=O)[C@H](CC(=O)O)NC(=O)[C@H](CCC(=O)O)NC(=O)[C@H](CCC(=O)O)NC(=O)CN)[C@@H](C)O)C(=O)N[C@@H](Cc1ccc(O)cc1)C(=O)O [CYRPA_070] (H-GEEDETHIY-OH) | 261000
CC(C)C[C@H](NC(=O)[C@@H](NC(=O)[C@H](CO)NC(=O)[C@@H](NC(=O)[C@@H](N)CC(=O)O)C(C)C)[C@@H](C)O)C(=O)N[C@@H](CC(N)=O)C(=O)N[C@@H](CC(=O)O)C(=O)N[C@@H](CCC(=O)O)C(=O)N[C@@H](Cc1ccc(O)cc1)C(=O)O [CYRPA_282] (H-DVSTLNDEY-OH) | 52200
CC[C@H](C)[C@H](NC(=O)[C@H](Cc1ccc(O)cc1)NC(=O)[C@H](CCC(=O)O)NC(=O)[C@H](CC(=O)O)NC(=O)[C@H](CC(N)=O)NC(=O)[C@@H](N)CC(C)C)C(=O)N[C@H](C(=O)N[C@@H](CO)C(=O)N[C@@H](Cc1ccc(O)cc1)C(=O)O)C(C)C [CYRPA_286] (H-LNDEYIVSY-OH) | 28100
CC[C@H](C)[C@H](NC(=O)[C@H](CO)NC(=O)[C@@H](N)CC(N)=O)C(=O)N[C@@H](CC(C)C)C(=O)N[C@H](C(=O)N[C@@H](CCCCN)C(=O)N1CCC[C@H]1C(=O)N[C@@H](CCC(=O)O)C(=O)N[C@@H](CCCCN)C(=O)N[C@@H](Cc1ccc(O)cc1)C(=O)O)[C@@H](C)CC [CYRPA_311] (H-NSILIKPEKY-OH) | 109000
CC[C@H](C)[C@H](NC(=O)[C@H](CC(=O)O)NC(=O)[C@H](CC(=O)O)NC(=O)[C@H](CCCCN)NC(=O)[C@H](CCC(=O)O)NC(=O)[C@H](CCC(=O)O)NC(=O)[C@H](CCC(=O)O)NC(=O)[C@@H](NC(=O)[C@@H](N)CO)[C@@H](C)O)C(=O)N[C@@H](CCCCN)C(=O)O [RH5_46] (H-STEEEKDDIK-OH) | 6830
CC(C)C[C@H](NC(=O)CNC(=O)[C@H](CC(=O)O)NC(=O)[C@H](CC(N)=O)NC(=O)[C@@H](NC(=O)[C@H](CC(N)=O)NC(=O)[C@@H](NC(=O)[C@@H](N)CC(N)=O)[C@@H](C)O)C(C)C)C(=O)N[C@@H](CCCCN)C(=O)N[C@@H](Cc1ccc(O)cc1)C(=O)O [RH5_88] (H-NTNVNDGLKY-OH) | 4120
CC(C)[C@H](NC(=O)[C@H](CC(N)=O)NC(=O)[C@H](CCCCN)NC(=O)[C@H](Cc1ccc(O)cc1)NC(=O)[C@H](CC(=O)O)NC(=O)[C@H](CCC(=O)O)NC(=O)[C@H](CC(N)=O)NC(=O)[C@@H](N)CC(N)=O)C(=O)N[C@@H](CC(=O)O)C(=O)N[C@@H](Cc1ccc(O)cc1)C(=O)O [RH5_130] (H-NNEDYKNVDY-OH) | 7990
CC(C)[C@H](NC(=O)[C@H](CC(N)=O)NC(=O)[C@H](CCCCN)NC(=O)[C@H](Cc1ccc(O)cc1)NC(=O)[C@H](CC(=O)O)NC(=O)[C@H](CCC(=O)O)NC(=O)[C@@H](N)CC(N)=O)C(=O)N[C@@H](CC(=O)O)C(=O)N[C@@H](Cc1ccc(O)cc1)C(=O)O [RH5_131] (H-NEDYKNVDY-OH) | 8920
CC[C@H](C)[C@H](NC(=O)[C@@H](NC(=O)[C@H](Cc1ccccc1)NC(=O)[C@H](CC(=O)O)NC(=O)[C@H](CC(C)C)NC(=O)[C@@H](N)Cc1c[nH]cn1)C(C)C)C(=O)N[C@H](C(=O)N1CCC[C@H]1C(=O)N[C@@H](Cc1c[nH]cn1)C(=O)N[C@@H](Cc1ccc(O)cc1)C(=O)O)[C@@H](C)CC [RH5_170] (H-HLDFVIIPHY-OH) | 118000
